Legend:
[1] = tested on: osteoclast activity (as measured by bone resorption); test: zoledronate concentration versus bone resorption (FIG. 3); format: cell-based; conditions: osteoclast activity decreases significantly compared to lower concentrations
Source text: (§1) The graphs in FIGS. 3 and 4 depict the optimal concentrations of zoledronate (derived from zoledronic acid as the bisphosphonate) required to suppress bone resorption by means of a proportionate decrease in osteoclast number.

[2] = tested on: osteoclast number; test: zoledronate concentration versus osteoclast number (FIG. 4); format: cell-based; conditions: compared to lower concentrations
Source text: as §1

O=P(O)(O)C(O)(Cn1ccnc1)P(=O)(O)O [zoledronic acid]
concentration of optimal efficacy to suppress bone resorption [1]: approximately 10^−6 M | concentration of optimal efficacy to decrease osteoclast number [2]: approximately 10^−6 M

— patent US20220111122A1, “COMPOSITION FOR IMPROVED BONE FRACTURE HEALING” (CORTHOTEC LTD, priority 2019, published 2022)
